Assays:
Assay type in all cases: functional
Rattus norvegicus [1] = experiment: Antihyperlipidemic activity in high fat diet fed Sprague-Dawley Rattus norvegicus (rat) assessed as atherogenic index at 50 mg/kg, po daily for 7 days measured on day 8 (reference value: 4.15 +/-0.23 no unit)
Rattus norvegicus [2] = experiment: Antihyperlipidemic activity in high fat diet fed Sprague-Dawley Rattus norvegicus (rat) assessed as decrease in serum triglyceride level at 50 mg/kg, po daily for 7 days measured on day 8 relative to untreated control; set-up: scale not given: the % may be the effect or the level left
Rattus norvegicus [3] = experiment: Antihyperlipidemic activity in high fat diet fed Sprague-Dawley Rattus norvegicus (rat) assessed as decrease in serum LDL level at 50 mg/kg, po daily for 7 days measured on day 8 relative to untreated control; set-up: scale not given: the % may be the effect or the level left
Rattus norvegicus [4] = experiment: Antihyperlipidemic activity in high fat diet fed Sprague-Dawley Rattus norvegicus (rat) assessed as increase in serum HDL level at 50 mg/kg, po daily for 7 days measured on day 8 relative to untreated control
Rattus norvegicus [5] = experiment: Antihyperlipidemic activity in high fat diet fed Sprague-Dawley Rattus norvegicus (rat) assessed as decrease in serum VLDL level at 50 mg/kg, po daily for 7 days measured on day 8 relative to untreated control; set-up: scale not given: the % may be the effect or the level left
Rattus norvegicus [6] = experiment: Antihyperlipidemic activity in high fat diet fed Sprague-Dawley Rattus norvegicus (rat) assessed as coronary risk index at 50 mg/kg, po daily for 7 days measured on day 8 (reference value: 5.21 +/-1.76 no unit)
Rattus norvegicus [7] = experiment: Antihyperlipidemic activity in high fat diet fed Sprague-Dawley Rattus norvegicus (rat) assessed as decrease in serum total cholesterol level at 50 mg/kg, po daily for 7 days measured on day 8 relative to untreated control; set-up: scale not given: the % may be the effect or the level left
Rattus norvegicus [8] = experiment: Antihyperlipidemic activity in high fat diet fed Sprague-Dawley Rattus norvegicus (rat) assessed as coronary risk index at 1 mg/kg, po daily for 7 days measured on day 8 (reference value: 5.21 +/-1.76 no unit)
Rattus norvegicus [9] = experiment: Antihyperlipidemic activity in high fat diet fed Sprague-Dawley Rattus norvegicus (rat) assessed as decrease in serum triglyceride level at 1 mg/kg, po daily for 7 days measured on day 8 relative to untreated control; set-up: scale not given: the % may be the effect or the level left
Rattus norvegicus [10] = experiment: Antihyperlipidemic activity in high fat diet fed Sprague-Dawley Rattus norvegicus (rat) assessed as increase in serum HDL level at 1 mg/kg, po daily for 7 days measured on day 8 relative to untreated control
Rattus norvegicus [11] = experiment: Antihyperlipidemic activity in high fat diet fed Sprague-Dawley Rattus norvegicus (rat) assessed as decrease in serum VLDL level at 1 mg/kg, po daily for 7 days measured on day 8 relative to untreated control; set-up: scale not given: the % may be the effect or the level left
Rattus norvegicus [12] = experiment: Antihyperlipidemic activity in high fat diet fed Sprague-Dawley Rattus norvegicus (rat) assessed as decrease in serum LDL level at 1 mg/kg, po daily for 7 days measured on day 8 relative to untreated control; set-up: scale not given: the % may be the effect or the level left
Rattus norvegicus [13] = experiment: Antihyperlipidemic activity in high fat diet fed Sprague-Dawley Rattus norvegicus (rat) assessed as decrease in serum total cholesterol level at 1 mg/kg, po daily for 7 days measured on day 8 relative to untreated control; set-up: scale not given: the % may be the effect or the level left
Rattus norvegicus [14] = experiment: Antihyperlipidemic activity in high fat diet fed Sprague-Dawley Rattus norvegicus (rat) assessed as atherogenic index at 1 mg/kg, po daily for 7 days measured on day 8 (reference value: 4.15 +/-0.23 no unit)

| SMILES | AI (Rattus norvegicus [1]) | Activity (Rattus norvegicus [2]) [%] | Activity (Rattus norvegicus [3]) [%] | Activity (Rattus norvegicus [4]) [%] | Activity (Rattus norvegicus [5]) [%] | Activity (Rattus norvegicus [6]) | Activity (Rattus norvegicus [7]) [%] | Activity (Rattus norvegicus [8]) | Activity (Rattus norvegicus [9]) [%] | Activity (Rattus norvegicus [10]) [%] | Activity (Rattus norvegicus [11]) [%] | Activity (Rattus norvegicus [12]) [%] | Activity (Rattus norvegicus [13]) [%] | AI (Rattus norvegicus [14]) |
| --- | --- | --- | --- | --- | --- | --- | --- | --- | --- | --- | --- | --- | --- | --- |
| O=c1[nH]c(CF)nc2sc3c(c12)CCCC3 | 0.96 | 50.71 | 65.82 | 58.27 | 50.71 | 2.39 | 40.44 |  |  |  |  |  |  |  |
| CCOC(=O)C1=C(C)C2C(=O)N=C(CF)N=C2S1 (stereo not drawn) | 0.31 | 57.77 | 86.92 | 73.48 | 57.76 | 1.69 | 56.19 |  |  |  |  |  |  |  |
| Cc1sc2nc(CF)[nH]c(=O)c2c1C | 1.46 | 37.8 | 45.91 | 44.68 | 37.83 | 3.14 | 32.48 |  |  |  |  |  |  |  |
| O=c1[nH]c(CF)nc2scc(-c3ccccc3)c12 | 1.13 | 49.36 | 56.47 | 46.43 | 49.37 | 2.63 | 37.45 |  |  |  |  |  |  |  |
| Cc1sc2nc(CF)[nH]c(=O)c2c1-c1ccccc1 | 1.51 | 39.74 | 48.7 | 41.31 | 39.77 | 3.18 | 33.18 |  |  |  |  |  |  |  |
| O=c1[nH]c(CF)nc2scc(-c3ccc(Cl)cc3)c12 | 0.63 | 51.91 | 72.47 | 79.63 | 51.91 | 2.05 | 44.99 |  |  |  |  |  |  |  |
| O=c1[nH]c(CF)nc2ccccc12 | 1.2 | 46.19 | 57.31 | 52.4 | 46.8 | 2.75 | 38.24 |  |  |  |  |  |  |  |
| COc1cc2nc(CF)[nH]c(=O)c2cc1OC | 1.53 | 45.14 | 40.26 | 62.44 | 45.85 | 3.16 | 26.27 |  |  |  |  |  |  |  |
| O=C1[C@H](CC[C@H](O)c2ccc(F)cc2)[C@@H](c2ccc(O)cc2)N1c1ccc(F)cc1 [EZETIMIBE] |  |  |  |  |  |  |  | 2.01 | 52.23 | 74.96 | 52.22 | 75.41 | 47.57 | 0.58 |

Reference: ChEMBL document CHEMBL3044693, “Synthesis and antihyperlipidemic activity of novel condensed 2-fluoromethylpyrimidines” (2013)
